Assay results reported in patent US7592345B2, “Piperazine and [1,4]diazepan derivatives as NK antagonists” (Hoffmann-La Roche Inc., priority 2007, dated 2009).

The compounds below were run against T1, recombinant human NK3 receptor (Homo sapiens, UniProt P29371) (assay: [3H]SR142801 competition binding assay). Settings: [3H]SR142801, membranes from HEK293 cells transiently expressing recombinant human NK3 receptor; read-out: hNK3 Ki.
T1 construct: expressed in transfected cells; host or cells: HEK293 cells (transient expression), membranes
T1 sequence (P29371 1-465): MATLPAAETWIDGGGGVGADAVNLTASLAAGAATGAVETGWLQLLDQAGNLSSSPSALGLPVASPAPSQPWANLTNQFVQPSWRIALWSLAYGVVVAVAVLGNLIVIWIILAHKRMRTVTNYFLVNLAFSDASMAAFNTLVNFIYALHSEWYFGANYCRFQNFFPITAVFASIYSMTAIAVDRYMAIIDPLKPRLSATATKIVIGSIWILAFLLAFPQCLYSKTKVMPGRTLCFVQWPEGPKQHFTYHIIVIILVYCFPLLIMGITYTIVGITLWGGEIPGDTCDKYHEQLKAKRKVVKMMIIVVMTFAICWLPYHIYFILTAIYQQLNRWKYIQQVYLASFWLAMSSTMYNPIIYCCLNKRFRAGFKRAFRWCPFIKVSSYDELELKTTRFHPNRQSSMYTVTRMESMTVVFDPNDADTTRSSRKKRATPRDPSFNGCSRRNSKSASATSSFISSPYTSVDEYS
Procedure: [^3H]SR142801 Competition Binding Assay
hNK3 receptor binding experiment were performed using [^3H]SR142801 (Catalog No. TRK1035, specific activity: 74.0 Ci/mmol, Amersham, GE Healthcare UK limited, Buckinghamshire, UK) and membrane isolated from HEK293 cells transiently expressing recombinant human NK3 receptor. After thawing, the membrane homogenates were centrifuged at 48,000×g for 10 min at 4° C., the pellets were resuspended in the 50 mM Tris-HCl, 4 mM MnCl2, 1 μM phosphoramidon, 0.1% BSA binding buffer at pH 7.4 to a final assay concentration of 5 μg protein/well. For inhibition experiments, membranes were incubated with [^3H]SR142801 at a concentration equal to KD value of radioligand and 10 concentrations of the inhibitory compound (0.0003-10 μM) (in a total reaction volume of 500 μl) for 75 min at room temperature (RT). At the end of the incubation, membranes were filtered onto unitfilter (96-well white microplate with bonded GF/C filter preincubated 1 h in 0.3% PEI+0.3% BSA, Packard BioScience, Meriden, Conn.) with a Filtermate 196 harvester (Packard BioScience) and washed 4 times with ice-cold 50 mM Tris-HCl, pH 7.4 buffer. Nonspecific binding was measured in the presence of 10 μM SB222200 for both radioligands. The radioactivity on the filter was counted (5 min) on a Packard Top-count microplate scintillation counter with quenching correction after addition of 45 μl of microscint 40 (Canberra Packard S. A., Zürich, Switzerland) and shaking for 1 h. Inhibition curves were fitted according to the Hill equation: y=100/(1+(x/IC50)^nH), where nH=slope factor using Excel-fit 4 software (Microsoft). IC50 values were derived from the inhibition curve and the affinity constant (Ki) values were calculated using the Cheng-Prussoff equation Ki=IC50/(1+[L]/KD) where [L] is the concentration of radioligand and KD is its dissociation constant at the receptor, derived from the saturation isotherm. All experiments were performed in duplicate and the mean±standard error (SEM) of the individual Ki values was calculated.

Row | SMILES | Ki [nM]
1 | C[C@@H]1CN(CCC(C)(C(=O)N(C)Cc2ccc(Cl)cc2)c2ccc(Cl)c(Cl)c2)CCN1S(C)(=O)=O (stereo partly drawn) [Example 56, N-(4-Chloro-benzyl)-2-(3,4-dichloro-phenyl)-4-((R)-4-methanesulfonyl-3-methyl-piperazin-1-yl)-2,N-dimethyl-butyramide] | 26.5
2 | CN(Cc1ccc(-c2ccncc2)cc1)C(=O)C(CCN1CCN(S(C)(=O)=O)CC1)c1ccc(Cl)c(Cl)c1 (stereo not drawn) [Example 2, 2-(3,4-Dichloro-phenyl)-4-(4-methanesulfonyl-piperazin-1-yl)-N-methyl-N-(4-pyridin-4-yl-benzyl)-butyramide] | 315
3 | COc1ccc(CN(C)C(=O)C(C)(CCN2CCN(S(C)(=O)=O)[C@@H](C)C2)c2ccc(Cl)c(Cl)c2)cc1F (stereo partly drawn) [Example 62, 2-(3,4-Dichloro-phenyl)-N-(3-fluoro-4-methoxy-benzyl)-4-((S)-4-methanesulfonyl-3-methyl-piperazin-1-yl)-2,N-dimethyl-butyramide] | 216
4 | CC(NC(=O)C(C)(CCN1CCN(S(C)(=O)=O)CC1)c1ccc(Cl)c(Cl)c1)c1ccc(F)cc1 (stereo not drawn) [Example 134, 2-(3,4-Dichloro-phenyl)-N-[1-(4-fluoro-phenyl)-ethyl]-4-(4-methanesulfonyl-piperazin-1-yl)-2-methyl-butyramide] | 229
5 | CC(CCN1CCN(S(C)(=O)=O)CC1)(C(=O)NCc1ccc(C(F)(F)F)cc1)c1ccc(Cl)c(Cl)c1 (stereo not drawn) [Example 27, 2-(3,4-Dichloro-phenyl)-4-(4-methanesulfonyl-piperazin-1-yl)-2-methyl-N-(4-trifluoromethyl-benzyl)-butyramide] | 82
6 | C[C@@H]1CN(CCC(C)(C(=O)NCc2ccc(C#N)cc2)c2ccc(Cl)c(Cl)c2)CCN1S(C)(=O)=O (stereo partly drawn) [Example 57, N-(4-Cyano-benzyl)-2-(3,4-dichloro-phenyl)-4-((R)-4-methanesulfonyl-3-methyl-piperazin-1-yl)-2-methyl-butyramide] | 161
7 | CN(Cc1ccccc1Cl)C(=O)C(C)(CCN1CCCN(S(C)(=O)=O)CC1)c1ccc(Cl)c(Cl)c1 (stereo not drawn) [Example 121, N-(2-Chloro-benzyl)-2-(3,4-dichloro-phenyl)-4-(4-methanesulfonyl-[1,4]diazepan-1-yl)-2,N-dimethyl-butyramide] | 31.2
8 | COc1ccc(CN(C)C(=O)C(C)(CCN2CCN(S(C)(=O)=O)CC2)c2ccc(Cl)c(Cl)c2)cc1F (stereo not drawn) [Example 25, 2-(3,4-Dichloro-phenyl)-N-(3-fluoro-4-methoxy-benzyl)-4-(4-methanesulfonyl-piperazin-1-yl)-2,N-dimethyl-butyramide] | 134
9 | Cc1ccc(CN(C)C(=O)C(C)(CCN2CCCN(S(C)(=O)=O)CC2)c2ccc(Cl)c(Cl)c2)cc1 (stereo not drawn) [Example 109, 2-(3,4-Dichloro-phenyl)-4-(4-methanesulfonyl-[1,4]diazepan-1-yl)-2,N-dimethyl-N-(4-methyl-benzyl)-butyramide] | 33.5
10 | C[C@@H]1CN(CCC(C)(C(=O)N(C)Cc2ccccc2Cl)c2ccc(Cl)c(Cl)c2)CCN1S(C)(=O)=O (stereo partly drawn) [Example 49, N-(2-Chloro-benzyl)-2-(3,4-dichloro-phenyl)-4-((R)-4-methanesulfonyl-3-methyl-piperazin-1-yl)-2,N-dimethyl-butyramide] | 88

More lines, in order of falling Ki, values ahead:

Row | Ki [nM] | SMILES
11 | 277 | COc1cc(CN(C)C(=O)C(C)(CCN2CCN(S(C)(=O)=O)[C@@H](C)C2)c2ccc(Cl)c(Cl)c2)ccc1OC(F)F (stereo partly drawn) [Example 66, 2-(3,4-Dichloro-phenyl)-N-(4-difluoromethoxy-3-methoxy-benzyl)-4-((S)-4-methanesulfonyl-3-methyl-piperazin-1-yl)-2,N-dimethyl-butyramide]
12 | 263 | COc1cccc(CN(C)C(=O)C(C)(CCN2CCN(S(C)(=O)=O)[C@H](C)C2)c2ccc(Cl)c(Cl)c2)c1 (stereo partly drawn) [Example 48, 2-(3,4-Dichloro-phenyl)-4-((R)-4-methanesulfonyl-3-methyl-piperazin-1-yl)-N-(3-methoxy-benzyl)-2,N-dimethyl-butyramide]
13 | 196 | CC(CCN1CCN(S(C)(=O)=O)CC1)(C(=O)NC(c1ccc(F)cc1)C(F)(F)F)c1ccc(Cl)c(Cl)c1 (stereo not drawn) [Example 135, 2-(3,4-Dichloro-phenyl)-4-(4-methanesulfonyl-piperazin-1-yl)-2-methyl-N-[2,2,2-trifluoro-1-(4-fluoro-phenyl)-ethyl]-butyramide]
14 | 171 | CN(Cc1ccc(Cl)cc1)C(=O)C(CCN1CCN(S(C)(=O)=O)CC1)c1ccc(Cl)c(Cl)c1 (stereo not drawn) [Example 1, N-(4-Chloro-benzyl)-2-(3,4-dichloro-phenyl)-4-(4-methanesulfonyl-piperazin-1-yl)-N-methyl-butyramide]
15 | 168 | C[C@H]1CN(CCC(C)(C(=O)N(C)Cc2ccccc2Cl)c2ccc(Cl)c(Cl)c2)CCN1S(C)(=O)=O (stereo partly drawn) [Example 79, N-(2-Chloro-benzyl)-2-(3,4-dichloro-phenyl)-4-((S)-4-methanesulfonyl-3-methyl-piperazin-1-yl)-2,N-dimethyl-butyramide]
16 | 136 | CN(Cc1ccc(C(F)(F)F)cc1)C(=O)C(CCN1CCN(S(C)(=O)=O)CC1)c1ccc(Cl)c(Cl)c1 (stereo not drawn) [Example 5, 2-(3,4-Dichloro-phenyl)-4-(4-methanesulfonyl-piperazin-1-yl)-N-methyl-N-(4-trifluoromethyl-benzyl)-butyramide]
17 | 68.1 | C[C@H]1CN(CCC(C)(C(=O)NCc2ccc(C(F)(F)F)cc2)c2ccc(Cl)c(Cl)c2)CCN1S(C)(=O)=O (stereo partly drawn) [Example 75, 2-(3,4-Dichloro-phenyl)-4-((S)-4-methanesulfonyl-3-methyl-piperazin-1-yl)-2-methyl-N-(4-trifluoromethyl-benzyl)-butyramide]
18 | 65.7 | COc1ccc(C(NC(=O)C(C)(CCN2CCN(S(C)(=O)=O)[C@@H](C)C2)c2ccc(Cl)c(Cl)c2)C2CC2)cc1 (stereo partly drawn) [Example 63, N-[Cyclopropyl-(4-methoxy-phenyl)-methyl]-2-(3,4-dichloro-phenyl)-4-((S)-4-methanesulfonyl-3-methyl-piperazin-1-yl)-2-methyl-butyramide]
19 | 49.6 | CC(CCN1CCCN(S(C)(=O)=O)CC1)(C(=O)NCc1ccc(C(F)(F)F)cc1)c1ccc(Cl)c(Cl)c1 (stereo not drawn) [Example 117, 2-(3,4-Dichloro-phenyl)-4-(4-methanesulfonyl-[1,4]diazepan-1-yl)-2-methyl-N-(4-trifluoromethyl-benzyl)-butyramide]
20 | 39.9 | CC(CCN1CCN(S(C)(=O)=O)CC1)(C(=O)N[C@@H](CO)c1ccc(Cl)cc1)c1ccc(Cl)c(Cl)c1 (stereo partly drawn) [Example 130, N-[(R)-1-(4-Chloro-phenyl)-2-hydroxy-ethyl]-2-(3,4-dichloro-phenyl)-4-(4-methanesulfonyl-piperazin-1-yl)-2-methyl-butyramide]
21 | 24.5 | CN(Cc1ccc(C(F)(F)F)cc1)C(=O)C(C)(CCN1CCCN(S(C)(=O)=O)CC1)c1ccc(Cl)c(Cl)c1 (stereo not drawn) [Example 96, 2-(3,4-Dichloro-phenyl)-4-(4-methanesulfonyl-[1,4]diazepan-1-yl)-2,N-dimethyl-N-(4-trifluoromethyl-benzyl)-butyramide]
22 | 16.2 | CC(NC(=O)C(C)(CCN1CCN(S(C)(=O)=O)[C@@H](C)C1)c1ccc(Cl)c(Cl)c1)c1ccc(Cl)c(Cl)c1 (stereo partly drawn) [Example 80, 2-(3,4-Dichloro-phenyl)-N-[1-(3,4-dichloro-phenyl)-ethyl]-4-((S)-4-methanesulfonyl-3-methyl-piperazin-1-yl)-2-methyl-butyramide]
23 | 15.9 | CC(NC(=O)C(C)(CCN1CCN(S(C)(=O)=O)[C@H](C)C1)c1ccc(Cl)c(Cl)c1)c1ccc(Cl)cc1 (stereo partly drawn) [Example 47, N-[1-(4-Chloro-phenyl)-ethyl]-2-(3,4-dichloro-phenyl)-4-((R)-4-methanesulfonyl-3-methyl-piperazin-1-yl)-2-methyl-butyramide]
24 | 9.2 | CN(Cc1ccc(F)c(C(F)(F)F)c1)C(=O)C(C)(CCN1CCCN(S(C)(=O)=O)CC1)c1ccc(Cl)c(Cl)c1 (stereo not drawn) [Example 106, 2-(3,4-Dichloro-phenyl)-N-(4-fluoro-3-trifluoromethyl-benzyl)-4-(4-methanesulfonyl-[1,4]diazepan-1-yl)-2,N-dimethyl-butyramide]
